Measurements as given in patent US6399660B1, “Aminoethylphenoxyacetic acid derivatives and drugs for pain remission and calculi removal promotion in urinary lithiasis” (Kissei Pharmaceutical Co., Ltd., priority 1997, dated 2002).

Columns and labels:
Format in all cases: cell-based
[1] = target: T1, β1-Adrenoceptor (Rattus norvegicus, UniProt P18090); test: β1-Adrenoceptor stimulating effects: heart rate increase in isolated rat atrium (Magnus method); conditions: isolated atria of male SD rats
T1 construct: Atria of male SD rats (350 to 400 g in body weight) were isolated; from tissue; host or cells: isolated atria of male SD rats
T1 sequence (P18090 whole entry): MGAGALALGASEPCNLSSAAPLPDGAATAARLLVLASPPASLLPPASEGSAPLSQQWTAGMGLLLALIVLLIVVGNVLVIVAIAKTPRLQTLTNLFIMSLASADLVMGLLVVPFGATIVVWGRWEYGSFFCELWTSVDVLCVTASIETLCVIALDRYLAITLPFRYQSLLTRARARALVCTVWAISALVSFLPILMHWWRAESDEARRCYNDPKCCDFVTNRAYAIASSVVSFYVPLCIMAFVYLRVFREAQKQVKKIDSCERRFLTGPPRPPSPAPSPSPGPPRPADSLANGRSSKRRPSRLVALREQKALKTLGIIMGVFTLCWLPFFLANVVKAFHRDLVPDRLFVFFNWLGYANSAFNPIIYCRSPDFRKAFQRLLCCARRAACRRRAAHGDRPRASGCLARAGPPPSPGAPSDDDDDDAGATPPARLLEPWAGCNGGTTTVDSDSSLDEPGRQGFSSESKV
Experimental: Atria of male SD rats (350 to 400 g in body weight) were isolated and the experiment was conducted according to the Magnus methods. The preparations with a tension of 1 g were exposed to Krebs-Henseleit solution maintained at 37° C. and gassed with a mixture of 95% oxygen and 5% carbon dioxide. The cardiac contractility was isometrically measured with a force-displacement transducer and recorded by a rectigraph. The drug efficacy was evaluated as the molar concentration required to produce 20 beats/minute increment of the heart rate (i.e., ECΔ20 value).

[2] = target: T2, β2-Adrenoceptor (Rattus norvegicus, UniProt P10608); test: β2-Adrenoceptor stimulating effects: inhibition of spontaneous contractions of isolated pregnant rat uterus (Magnus method); conditions: isolated uterus of pregnant SD rats (day 21), cumulative addition every 5 minutes, read-out: EC50 value (concentration required to produce 50% inhibition of uterine contractions), Test Example 1
T2 construct: Uteri of pregnant SD rats (pregnancy day 21) were isolated and longitudinal smooth muscle strips; from tissue; host or cells: longitudinal smooth muscle strips of pregnant SD rat uterus (day 21)
T2 sequence (P10608 whole entry): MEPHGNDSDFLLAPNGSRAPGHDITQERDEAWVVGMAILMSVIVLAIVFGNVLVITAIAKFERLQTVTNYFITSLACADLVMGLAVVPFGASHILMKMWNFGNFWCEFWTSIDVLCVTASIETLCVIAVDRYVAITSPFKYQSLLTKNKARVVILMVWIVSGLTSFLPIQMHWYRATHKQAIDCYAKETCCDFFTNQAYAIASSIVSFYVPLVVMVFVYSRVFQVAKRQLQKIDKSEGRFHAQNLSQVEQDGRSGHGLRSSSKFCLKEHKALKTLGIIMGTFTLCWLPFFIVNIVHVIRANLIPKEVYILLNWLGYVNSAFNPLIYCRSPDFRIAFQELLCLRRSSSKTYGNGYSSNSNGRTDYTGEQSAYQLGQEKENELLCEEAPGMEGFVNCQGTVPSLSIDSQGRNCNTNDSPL
Experimental: Uteri of pregnant SD rats (pregnancy day 21) were isolated and longitudinal smooth muscle strips of approximately 15 mm in length and approximately 5 mm in width free from the basal plate were prepared. The experiment was conducted according to the Magnus method. The preparations with a tension of 1 g were exposed to Locke-Ringer solution maintained at 37° C. and gassed with a mixture of 95% oxygen and 5% carbon dioxide. Spontaneous contractions of myometrium were isometrically measured with a force-displacement transducer and recorded by a rectigraph. The drug was cumulatively added to the Magnus bath every 5 minutes. The drug efficacy was evaluated as the concentration of the drug required to produce 50% of the inhibition of uterine contractions (i.e., EC50 value) by comparing the sum of uterine contractions during 5 minutes after the addition of the drug with the sum of uterine contractions during 5 minutes before the addition of the drug (100%).

[3] = target: β3-Adrenoceptor (Mustela putorius furo, UniProt M3YEU4); test: β3-Adrenoceptor stimulating effects: inhibition of spontaneous contractions of isolated ferret ureter (Magnus method); conditions: isolated male ferret ureter, cumulative addition every 3 minutes, read-out: EC50 value (concentration required to produce 50% inhibition of ureter contractions), Test Example 2
β3-Adrenoceptor, sequence (M3YEU4 entry or part of it): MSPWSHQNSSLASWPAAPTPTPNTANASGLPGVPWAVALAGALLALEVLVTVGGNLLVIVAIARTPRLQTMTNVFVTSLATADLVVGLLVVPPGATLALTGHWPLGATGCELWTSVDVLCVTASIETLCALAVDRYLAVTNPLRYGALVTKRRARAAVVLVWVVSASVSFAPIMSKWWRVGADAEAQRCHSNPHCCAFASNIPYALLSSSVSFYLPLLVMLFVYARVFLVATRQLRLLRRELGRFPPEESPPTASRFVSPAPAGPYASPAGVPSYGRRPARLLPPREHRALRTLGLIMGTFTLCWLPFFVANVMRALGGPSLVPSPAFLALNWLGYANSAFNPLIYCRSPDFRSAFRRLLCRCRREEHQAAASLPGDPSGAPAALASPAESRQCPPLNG
Experimental: After removal of connective tissue, longitudinal smooth muscle strips of approximately 20 mm in length were prepared. The experiment was conducted according to the Magnus method. The preparations with a tension of 0.5 g were exposed to Krebs-Henseleit solution maintained at 37° C. and gassed with a mixture of 95% oxygen and 5% carbon dioxide. Spontaneous contractions of ureters were isometrically measured with a force-displacement transducer and recorded by a rectigraph. The drug was cumulatively added to the Magnus bath every 3 minutes.

EC50 [2]	SMILES	ECΔ20 value (molar concentration required to produce 20 beats/minute increment of the heart rate), Test Example 3 [1]	ECΔ20 value (molar concentration required to produce 20 beats/minute increment of the heart rate), Test Example 3 ([1]; listed as 2-[4-[2-[[(1S,2R)-2-hydroxy-2-(4-hydroxyphenyl)-1-methylethyl]amino]ethyl]phenox)	EC50 [3]
13 nM	C[C@H](NCCc1ccc(OCC(=O)O)cc1Cl)[C@H](O)c1ccc(O)cc1 [Compound 8, 2-[3-Chloro-4-[2-[[(1S,2R)-2-hydroxy-2-(4-hydroxyphenyl)-1-methyl-ethyl]amino]ethyl]phenoxy]acetic acid]	110 nM		
	C[C@H](NCCc1ccc(OCC(=O)O)cc1)[C@H](O)c1ccc(O)cc1 [Compound 9, 2-[4-[2-[[(1S,2R)-2-Hydroxy-2-(4-hydroxyphenyl)-1-methylethyl]-amino]ethyl]phenoxy]acetic acid]	1300 nM	1300 nM	14 nM
39 nM	C[C@H](NCCc1ccc(OCC(=O)O)cc1F)[C@H](O)c1ccc(O)cc1 [Compound 10, 2-[3-Fluoro-4-[2-[[(1S,2R)-2-hydroxy-2-(4-hydroxyphenyl)-1-methyl-ethyl]amino]ethyl]phenoxy]acetic acid]	1000 nM		
3.3 nM	C[C@H](NCCc1ccc(OCC(=O)OCc2ccccc2)cc1F)[C@H](O)c1ccc(O)cc1.Cl [Compound 7, Benzyl 2-[3-fluoro-4-[2-[[(1S,2R)-2-hydroxy-2-(4-hydroxyphenyl)-1-methylethyl]amino]ethyl]phenoxy]acetate hydrochloride]	300 nM		
